Measurements from US10160763B2, “WDR5 inhibitors and modulators” (Vanderbilt University, priority 2016, dated 2018).

molecular target: WDR5 (Δ23, residues 24-334) (Homo sapiens, UniProt P61964); assay: biochemical; settings: Kd (M), FPA-based binding affinity at the WDR5 WIN site; IC50 converted to Kd by modified Cheng-Prusoff equation; average of two experiments

Kd	Structure (SMILES)
6e-06 M	O=C(Cc1cccc(Cl)c1)NCc1cccc(-c2cn3c(n2)CCC3)c1 [B133]
2.68e-06 M	O=C(NCc1cccc(-c2cn3c(n2)CCC3)c1)c1ccc(O)nc1 [B26]
4.16e-07 M	O=C(Cc1ccc(Cl)c(Cl)c1)N(Cc1cc(-c2cn3c(n2)CCC3)ccc1N1CCCC1)CC1CC1 [B146]
2.71e-06 M	O=C(NCc1ccccc1)NCc1cccc(-c2cn3c(n2)CCC3)c1 [B34]
8.08e-07 M	O=C(NCc1cccc(-c2cn3c(n2)CCC3)c1)c1ccc2c(c1)OCCO2 [B54]
2.96e-05 M	Cc1cc(C(=O)N(Cc2cccc(-c3cn4c(n3)CCC4)c2)CC2CC2)ccc1Cl [B44]
1.18e-06 M	O=C(NCc1cccc(-c2cn3c(n2)CCC3)c1)c1ccc2c(c1)OCO2 [B56]
2.78e-05 M	Cn1cc(CC(=O)NCc2cccc(-c3cn4c(n3)CCC4)c2)c2ccccc21 [B121]
6.04e-07 M	O=C(Cc1ccc2c(c1)CCO2)NCc1cccc(-c2cn3c(n2)CCC3)c1 [B153]
2.6e-08 M	O=C(Cc1cccc(OC(F)(F)F)c1)NCc1cccc(-c2cn3c(n2)CCC3)c1 [B137]
1.82e-06 M	O=C(CCc1ccccc1)N(Cc1cccc(-c2cn3c(n2)CCC3)c1)CC1CC1 [B19]
5.19e-06 M	O=C(NCc1cccc(-c2cn3c(n2)CCC3)c1)c1cccc2cccnc12 [B14]
4.85e-07 M	O=C(C1CC1c1ccccc1)N(Cc1cccc(-c2cn3c(n2)CCC3)c1)CC1CC1 (stereo not shown) [B51]
2e-07 M	O=C(Cc1ccc(Cl)c(Cl)c1)N(Cc1cc(-c2cn3c(n2)CCC3)ccc1OCC1CC1)CC1CC1 [B100]
9.1e-08 M	COc1cccc(CCC(=O)NCc2cccc(-c3cn4c(n3)CCC4)c2)c1 [B157]
3.24e-07 M	COc1cccc(NC(=O)N(C)Cc2cccc(-c3cn4c(n3)CCC4)c2)c1 [B31]
2.32e-07 M	O=C(Cc1ccc(O)c(Cl)c1)NCc1cccc(-c2cn3c(n2)CCC3)c1 [B120]
5.98e-06 M	COc1ccc(C(=O)N(Cc2cccc(-c3cn4c(n3)CCC4)c2)C(C)c2ccccc2)cc1OC (stereo not shown) [B70]

The remaining lines, values behind:

Structure (SMILES)	Kd
CC(=O)N1CCCC(CC(=O)NCc2cccc(-c3cn4c(n3)CCC4)c2)C1 (stereo not shown) [B140]	8.67e-07 M
O=C(NCc1cccc(-c2cn3c(n2)CCC3)c1)c1cnco1 [B170]	9.24e-07 M
COc1ccc(C(=O)N(Cc2cccc(-c3cn4c(n3)CCC4)c2)C(C2CC2)C2CC2)cc1OC [B55]	5.25e-06 M
COc1ccc(C(=O)N(Cc2cccc(-c3cn4c(n3)CCC4)c2)C(C)c2cccc(Cl)c2)cc1OC (stereo not shown) [B68]	3.72e-06 M
COc1cc(C(=O)NCc2cc(-c3cn4c(n3)CCC4)cnc2N2CCOCC2)ccc1C [B223, N-((5-(6,7-dihydro-5H-pyrrolo[1,2-a]imidazol-2-yl)-2-morpholinopyridin-3-yl)methyl)-3-methoxy-4-methylbenzamide]	9.1e-08 M
CC(NC(=O)Cc1ccc(F)c(Cl)c1)c1cccc(-c2cn3c(n2)CCC3)c1 (stereo not shown) [B206]	1.35e-06 M
O=C(Cc1ccc(F)c(Cl)c1)NCc1cc(-c2cn3c(n2)CCC3)ccc1N1CCOCC1 [B193]	3.23e-06 M
CC(C)C(=O)N1CCCC(C(=O)NCc2cccc(-c3cn4c(n3)CCC4)c2)C1 (stereo not shown) [B185]	1.55e-07 M
COc1cccc(C(=O)NCc2cc(-c3cn4c(n3)CCC4)ccc2N2CCCC2)c1 [B114]	4.73e-07 M
O=C(NCc1cccc(-c2cn3c(n2)CCC3)c1)c1cocn1 [B168]	5.75e-07 M
Cc1cnc(Cl)c(C(=O)NCc2cccc(-c3cn4c(n3)CCC4)c2)c1 [B169]	6.68e-07 M
CC(=O)N1CCCC(C(=O)N(Cc2cc(-c3cn4c(n3)CCC4)ccc2OC2CCC2)CC2CC2)C1 (stereo not shown) [B161]	1e-05 M
O=C(NCc1cccc(-c2cn3c(n2)CCC3)c1)c1ccc(Cl)cc1Cl [B4]	3.9e-06 M
COc1cccc(C(=O)N(Cc2cccc(-c3cn4c(n3)CCC4)c2)C(C)c2cccc(Cl)c2)c1 (stereo not shown) [B83]	4.51e-07 M
COc1cc(C(=O)NC(C)c2cc(-c3cn4c(n3)CCC4)ccc2N2CCOCC2)ccc1C (stereo not shown) [B213]	4.7e-08 M
O=C(CC1CCCCC1)NCc1cccc(-c2cn3c(n2)CCC3)c1 [B20]	3.63e-06 M
O=C(Cc1ccc(F)c(Cl)c1)N(Cc1cc(-c2cn3c(n2)CCC3)ccc1N1CCOCC1)CC1CCOCC1 [B202]	4.56e-07 M
COc1cccc(C(=O)NCc2cc(-c3cn4c(n3)CCC4)ccc2Oc2ccccc2)c1 [B119]	1.8e-08 M
CN(Cc1cccc(-c2cn3c(n2)CCC3)c1)C(=O)Nc1cc(Cl)cc(Cl)c1 [B74]	8.21e-07 M
COc1cccc(C(=O)NCc2cc(-c3cn4c(n3)CCC4)ccc2OC2CCCC2)c1 [B117]	1e-05 M

Structure (SMILES)	Kd
CC(=O)N1CCCC(C(=O)NCc2cc(-c3cn4c(n3)CCC4)ccc2OC2CCC2)C1 (stereo not shown) [B164]	2.31e-07 M
CC(C)C(NC(=O)Cc1ccc(F)c(Cl)c1)c1cccc(-c2cn3c(n2)CCC3)c1 (stereo not shown) [B221]	1.17e-07 M
CC(C)N1CCCC(C(=O)NCc2cc(-c3cn4c(n3)CCC4)ccc2OC2CCC2)C1 (stereo not shown) [B199]	6.3e-06 M
O=C(Cc1ccc(Cl)c(Cl)c1)NCc1cc(-c2cn3c(n2)CCC3)ccc1Oc1ccccc1 [B125]	2.2e-07 M
CC(=O)N1CCCC(C(=O)NC(C)c2cc(-c3cn4c(n3)CCC4)ccc2OC2CCC2)C1 (stereo not shown) [B208]	2.2e-08 M
COc1ccc(C(=O)N(Cc2cc(Cl)cc(-c3cn4c(n3)CCC4)c2)CC2CC2)cc1OC [B46]	1.25e-07 M
COc1cc(C(=O)N(Cc2cc(-c3cn4c(n3)CCC4)ccc2N2CCOCC2)CC2CCOCC2)ccc1C [B204]	2.6e-08 M
O=C(NCc1cccc(-c2cn3c(n2)CCC3)c1)c1cc(Cl)cc(Cl)c1 [B5]	2.28e-06 M
Cc1ccccc1-c1ccc(-c2cn3c(n2)CCC3)cc1CNC(=O)Cc1ccc(Cl)c(Cl)c1 [B145]	6.77e-06 M
CC(=O)N1CCCC(C(=O)NCc2cc(-c3cn4c(n3)CCC4)ccc2N2CCOCC2)C1 (stereo not shown) [B156]	6.8e-08 M
COc1cc(C(=O)N(Cc2cc(-c3cn4c(n3)CCC4)ccc2N2CCOCC2)CC2CC2)ccc1C [B200]	4.04e-06 M
COc1cccc(C(=O)NCc2cc(-c3cn4c(n3)CCC4)ccc2N2CCCCC2)c1 [B103]	1.04e-07 M
COC1CCN(c2ccc(-c3cn4c(n3)CCC4)cc2CNC(=O)Cc2ccc(Cl)c(Cl)c2)C1 (stereo not shown) [B177]	2.08e-06 M
O=C(NCc1cccc(-c2cn3c(n2)CCC3)c1)c1ccc(F)c(F)c1 [B166]	5.8e-08 M
CN(C)C(=O)CCC(=O)NCc1cccc(-c2cn3c(n2)CCC3)c1 [B124]	2.25e-07 M
COc1cccc(C(=O)NCc2cc(-c3cn4c(n3)CCC4)ccc2-c2ccccc2)c1 [B126]	5.7e-08 M
CC(C)N(Cc1cccc(-c2cn3c(n2)CCC3)c1)C(=O)Cc1cc(Cl)cc(Cl)c1 [B73]	1.9e-06 M
O=C(CC1CCNCC1)NCc1cccc(-c2cn3c(n2)CCC3)c1 [B150]	1e-05 M
CCC(NC(=O)Cc1ccc(F)c(Cl)c1)c1cccc(-c2cn3c(n2)CCC3)c1 (stereo not shown) [B217]	3.2e-08 M
COc1cc(C(=O)NC(C)c2cccc(-c3cn4c(n3)CCC4)c2)ccc1C (stereo not shown) [B201]	2.3e-08 M
